Literature values, collected in patent US9351926B2 (Pharmaceutical Solutions Industry Ltd., priority 2012, dated 2016).

How the values were obtained:
[1] = system: platelet aggregation; settings: single dose 400 mg within 8 hours before or within 30 minutes after immediate release aspirin (81 mg)
[2] = children, overdose
[3] = low dose (e.g. 1200 mg daily); epidemiological studies

Row | ingested dose that may cause symptoms [2] | Bioavailability (in vivo) | Excretion (in vivo) | concentration in breast milk (limited studies) | time of peak serum concentrations after ingestion (oral, empty stomach) | time of peak levels after administration (oral, taken with food) | interconversion into the active [+]S species (in adults) | SMILES | effect on the action of aspirin on thromboxane formation or platelet aggregation [1] | risk of myocardial infarction [3]
1 | more than 400 mg/kg | 49-73% | Renal | very low concentrations | 45 min | 1 to 2 h | – | CC(C)Cc1ccc(C(C)C(=O)O)cc1 (racemic) [Ibuprofen, (RS)-2-(4-(2-methylpropyl)phenyl) propanoic acid] | decreased effect of aspirin on the formation of thromboxane or platelet aggregation | do not suggest that low dose ibuprofen (e.g. 1200 mg daily) is associated with an increased risk of myocardial infarction
2 | – | – | – | – | – | – | ~60% | CC(C)Cc1ccc([C@@H](C)C(=O)O)cc1 [HR-form] | – | –
